Source: patent US5208135A, “Preparation and use of dyes” (Minnesota Mining and Manufacturing Company, priority 1990, dated 1993)

How the values were obtained:
[1] = Dye stability on storage in light-tight envelope at room temperature; format: physicochemical; conditions: for Loss of optical density after storage (thermal bleaching): Example 5 coating, 24 hour storage, light-tight envelope; for Loss of optical density after storage (thermal bleaching) / Loss of dye density during storage / Dye Stability: OD at Day 0 / Dye Stability: OD at Day 7: room temperature; for Loss of dye density during storage: less than 24 hours; for Dye Stability: OD at Day 0 / Dye Stability: OD at Day 7: lighttight envelope
Method: However, both Control Dyes 1 and 2 are readily bleached during storage with an 80% loss of dye density in less than 24 hours. Thus the dyes of the invention show increased stability compared with the control dyes.
*Storage is conducted in a lighttight envelope at room temperature.

[2] = Sensitisation of acrylate polymerisation: tungsten light exposure of laminate, acetone development (Example 4); conditions: coating; for Acetone Solubility After Exposure: after exposure to 250W tungsten light source for 30 seconds
Method: The ability of Dye C of the invention and Control Dyes 1 and 2 to sensitise acrylate polymerisation was evaluated by the following protocol.
A solution of Dye C (0.lg), pentaerythritol tetraacrylate monomer (0.6g), commercially available from Ancomer Chemicals under the trade designation ATM 11, 4-butoxyphenyl phenyl iodonium trifluoroacetate (0.125g) shown below as IOD J, and poly(vinyl butyral) (Butvar B-76) (0.6 g), was made in butanone (95 g) in conditions of diminished light. [drawing 30]
The solution was coated onto 0.01 cm unsubbed poly(ethylene terephthalate) (PET) base at a wet thickness of 24μm and dried. A laminate was prepared by covering the monomer coating with a second 0.01 cm PET sheet by cold pressure rolling. The laminate was imagewise exposed to a 250W tungsten light source for 30 seconds using the stage of an overhead projector. […] Stripping of the cover sheet was more readily completed in exposed areas, whereas, in unexposed areas the monomer coatings partially adhered to the cover sheet. The latent image was developed by immersion in acetone, wherein exposed areas remained adhered to the PET base and unexposed areas were rapidly dissolved to obtain a relief image.

[3] = Absorption maximum and optical density of dye; format: physicochemical; conditions: for λmax: Table 1
Method: The solution was coated using K-bar 3 onto unsubbed 0.01 cm PET base and the resulting coating dried for 1 hour at 30° C. ("K-bars" are wire wound coating rods manufactured by R.K. Print-Coat Instrument Ltd.) The dried coating was topcoated with an aqueous solution of poly(vinyl alcohol) (8%) containing Tergitol TMN-10, commercially available from Union Carbide, using K-Bar 8 (10 ml 8% poly(vinyl alcohol) containing 1 ml 10% Tergitol TMN-10). The top coating was dried for 12 hours at 30° C. to provide a PVA oxygen-impermeable barrier layer over the photopolymer layer. The inclusion of a PVA barrier layer provides a more controlled imaging element for the evaluation of dye sensitised photopolymerisation than the composite of the previous Example.

| Loss of optical density after storage (thermal bleaching) [1] | Loss of dye density during storage ([1]; laminate) [%] | Dye Stability: OD at Day 0 [1] | Dye Stability: OD at Day 7 [1] | λmax [3] [nm] | Absorption maximum in coating ([3]; dried coating of Example 5) [nm] | OD at the absorption maximum ([3]; dried coating of Example 5, at 803 nm) | Compound | Acetone Solubility After Exposure [2] | Acetone Solubility Before Exposure [2] | Imaging characteristics after storage ([1]; laminate, light tight envelope, 7 days, room temperature prior to exposure) |
| --- | --- | --- | --- | --- | --- | --- | --- | --- | --- | --- |
| lost substantially all optical density | 80 | 1.5 | 0.1 | 760 |  |  | O=C1C(=CC=CC=CC=CC2=C(O)c3ccccc3C2=O)C(=O)c2ccccc21 [Control Dye 2] | Yes | Yes |  |
|  |  |  |  |  | 803 | 0.39 | N#CC(C#N)=C1C(=CC=CC=CC2=C(O)c3ccccc3C2=C(C#N)C#N)C(=O)c2ccccc21 [Dye B] |  |  |  |
| lost substantially all optical density | 80 | 1.3 | 0.1 | 650 |  |  | CCOC(=O)C(C#N)=CC=CC=CC=CC(C#N)=C(O)OCC [Control Dye 1] | Yes | Yes |  |

| Compound | Loss of optical density after storage (thermal bleaching) [1] | Loss of dye density during storage ([1]; laminate) [%] | Dye Stability: OD at Day 0 [1] | Dye Stability: OD at Day 7 [1] | λmax [3] [nm] | Absorption maximum in coating ([3]; dried coating of Example 5) [nm] | OD at the absorption maximum ([3]; dried coating of Example 5, at 803 nm) | Acetone Solubility After Exposure [2] | Acetone Solubility Before Exposure [2] | Imaging characteristics after storage ([1]; laminate, light tight envelope, 7 days, room temperature prior to exposure) |
| --- | --- | --- | --- | --- | --- | --- | --- | --- | --- | --- |
| N#CC(C#N)=C1C(=CC=CC=CC2=C(O)c3c(cccc3[N+](=O)[O-])C2=C(C#N)C#N)C(=O)c2c1cccc2[N+](=O)[O-] [Dye C] |  |  | 0.8 | 0.8 | 815 |  |  | No | Yes | unchanged imaging characteristics |
